# According to ChEMBL document CHEMBL6127062, “Targeted degradation of METTL3 against acute myeloid leukemia and gastric cancer” (Eur J Med Chem, 2024):
# pIC50: −log10 of the molar value. Active and inactive are the calls of the source. The rule behind the calls is not given here.
# What was measured:
# Gastric cancer organoid [1] = test: Anti-proliferative activity against patient derived GA352T organoids assessed as suppression of tumor growth incubated for 5 days by Celltiter-glo viability assay; assay type: functional, tissue-based; details: Homo sapiens; Neoplasm; time 5.0 day
# [2] = biological target: T1, von Hippel-Lindau disease tumor suppressor/N(6)-adenosine-methyltransferase catalytic subunit METTL3 (Homo sapiens, UniProt P40337+Q86U44); test: PROTAC activity at VHL/METTL3 in human MOLM-13 cells assessed as induction of METTL3 degradation incubated for 4 to 24 hrs by Western blot analysis relative to control; assay type: cell-based; details: time 4-24 hrs
# Target sequence in this assay (Q86U44 2-580 partner limits assumed): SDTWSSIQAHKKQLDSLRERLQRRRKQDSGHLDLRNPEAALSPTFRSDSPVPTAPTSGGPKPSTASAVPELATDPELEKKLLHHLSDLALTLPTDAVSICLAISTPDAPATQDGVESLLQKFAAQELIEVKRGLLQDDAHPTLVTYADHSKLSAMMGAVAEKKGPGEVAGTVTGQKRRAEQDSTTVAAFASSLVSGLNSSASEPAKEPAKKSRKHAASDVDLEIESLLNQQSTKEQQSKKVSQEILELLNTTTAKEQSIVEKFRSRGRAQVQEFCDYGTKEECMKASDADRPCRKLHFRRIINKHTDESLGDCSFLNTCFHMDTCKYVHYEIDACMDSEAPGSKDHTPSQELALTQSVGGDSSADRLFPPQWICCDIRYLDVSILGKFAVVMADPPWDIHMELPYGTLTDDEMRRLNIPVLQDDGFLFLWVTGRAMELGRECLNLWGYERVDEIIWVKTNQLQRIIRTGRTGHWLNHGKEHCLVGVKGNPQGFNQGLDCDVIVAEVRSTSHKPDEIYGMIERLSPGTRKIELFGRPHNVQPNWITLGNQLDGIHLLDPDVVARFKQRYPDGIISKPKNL
# Target sequence in this assay (P40337 whole entry): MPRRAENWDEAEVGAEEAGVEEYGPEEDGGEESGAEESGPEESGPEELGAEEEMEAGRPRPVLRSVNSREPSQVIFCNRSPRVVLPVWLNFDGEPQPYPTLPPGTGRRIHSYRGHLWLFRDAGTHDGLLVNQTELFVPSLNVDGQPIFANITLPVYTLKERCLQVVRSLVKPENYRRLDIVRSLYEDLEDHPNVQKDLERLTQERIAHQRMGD
# [3] = biological target: T1, von Hippel-Lindau disease tumor suppressor/N(6)-adenosine-methyltransferase catalytic subunit METTL3; test: PROTAC activity at VHL/METTL3 in human MOLM-13 cells assessed as induction of METTL3 degradation at 1 uM incubated for 4 hrs by Western blot analysis relative to control; assay type: cell-based
# Target sequence in this assay (Q86U44 2-580 partner limits assumed): as the sequence (Q86U44 2-580 partner limits assumed) above
# Target sequence in this assay (P40337 whole entry): as the sequence (P40337 whole entry) above
# [4] = biological target: T1, von Hippel-Lindau disease tumor suppressor/N(6)-adenosine-methyltransferase catalytic subunit METTL3; test: PROTAC activity at VHL/METTL3 (unknown origin) expressed in HeLa cells incubated for 4 hrs presence of MZ1 by flow cytometry analysis; assay type: cell-based
# Target sequence in this assay (Q86U44 2-580 partner limits assumed): as the sequence (Q86U44 2-580 partner limits assumed) above
# Target sequence in this assay (P40337 whole entry): as the sequence (P40337 whole entry) above
# GES1 [5] = test: Cytotoxicity against human GES1 cells assessed as reduction in cell viability incubated for 24 hrs; assay type: toxicity, cell-based; details: ges1, 24 h
# [6] = biological target: T1, von Hippel-Lindau disease tumor suppressor/N(6)-adenosine-methyltransferase catalytic subunit METTL3; test: PROTAC activity at VHL/METTL3 in human MOLM-13 cells assessed as induction of METTL3 degradation at 10 uM by Western blot analysis relative to control; assay type: cell-based
# Target sequence in this assay (Q86U44 2-580 partner limits assumed): as the sequence (Q86U44 2-580 partner limits assumed) above
# Target sequence in this assay (P40337 whole entry): as the sequence (P40337 whole entry) above
# MOLM-13 [7] = test: Downregulation of C-Myc protein level expression in human MOLM-13 cells incubated for 24 hrs by Western blot analysis; assay type: functional, cell-based
# [8] = biological target: T1, von Hippel-Lindau disease tumor suppressor/N(6)-adenosine-methyltransferase catalytic subunit METTL3; test: Binding affinity to N-Luc tagged METTL3 (unknown origin)/Halo-tagged VHL (unknown origin) HA-Ub expressed in HEK293T cells assessed as ternary complex formation by measuring increase ubiquitination level at 1 uM preincubated with epoxomicin for 2.5 hrs followed by compound addition and measured after 6 hrs by NanoBRET assay; assay type: cell-based
# Target sequence in this assay (Q86U44 2-580 partner limits assumed): as the sequence (Q86U44 2-580 partner limits assumed) above
# Target sequence in this assay (P40337 whole entry): as the sequence (P40337 whole entry) above
# [9] = biological target: T1, von Hippel-Lindau disease tumor suppressor/N(6)-adenosine-methyltransferase catalytic subunit METTL3; test: Binding affinity to N-Luc tagged METTL3 (unknown origin)/Halo-tagged VHL (unknown origin) expressed in HEK293T cells assessed as ternary complex formation by measuring increase in BRET ratio at 1 uM preincubated with epoxomicin for 2 hrs followed by compound addition and measured after 4.5 hrs by NanoBRET assay; assay type: cell-based
# Target sequence in this assay (Q86U44 2-580 partner limits assumed): as the sequence (Q86U44 2-580 partner limits assumed) above
# Target sequence in this assay (P40337 whole entry): as the sequence (P40337 whole entry) above
# [10] = biological target: T1, von Hippel-Lindau disease tumor suppressor/N(6)-adenosine-methyltransferase catalytic subunit METTL3; test: PROTAC activity at VHL/METTL3 (unknown origin) expressed in HeLa cells assessed as BRD4-eGFP_mCherry level incubated for 4 hrs in presence of MZ1 by flow cytometry analysis; assay type: cell-based
# METTL3/METTL14 = METTL3/METTL14 (Homo sapiens, UniProt Q86U44); test: Inhibition of METTL3/METTL14 (unknown origin) using Oligo ssRNA as substrate incubated for 20 min by Hotspot RNA methyltransferase assay; assay type: protein-complex assay
# [11] = biological target: T1, von Hippel-Lindau disease tumor suppressor/N(6)-adenosine-methyltransferase catalytic subunit METTL3; test: PROTAC activity at VHL/METTL3 in human MOLM-13 cells assessed as induction of METTL3 degradation at 1 uM incubated for 24 hrs by Western blot analysis relative to control; assay type: cell-based
# [12] = biological target: T1, von Hippel-Lindau disease tumor suppressor/N(6)-adenosine-methyltransferase catalytic subunit METTL3; test: PROTAC activity at VHL/METTL3 in human MOLM-13 cells assessed as induction of METTL3 degradation at 1 uM by Western blot analysis; assay type: cell-based; details: time 4-24 hrs, TDE = time-dependent effect
# [13] = biological target: T1, von Hippel-Lindau disease tumor suppressor/N(6)-adenosine-methyltransferase catalytic subunit METTL3; test: PROTAC activity at VHL/METTL3 in HEK293T cells assessed as induction of METTL3 degradation at 1 uM preincubated with MLN4924 for 2.5 hrs followed by compound addition and measured after 6 hrs by Western blot analysis; assay type: cell-based
# Gastric cancer organoid [14] = test: Anti-proliferative activity against patient derived GA215T organoids assessed as suppression of tumor growth incubated for 5 days by Celltiter-glo viability assay; assay type: functional, tissue-based; details: Homo sapiens; Neoplasm; time 5.0 day
# [15] = biological target: T1, von Hippel-Lindau disease tumor suppressor/N(6)-adenosine-methyltransferase catalytic subunit METTL3; test: PROTAC activity at VHL/METTL3 in HEK293T cells assessed as induction of METTL3 degradation at 1 uM preincubated with epoxomicin for 2.5 hrs followed by compound addition and measured after 6 hrs by Western blot analysis; assay type: cell-based
# MOLM-14 = test: Antiproliferative activity against human MOLM-14 cells assessed as cell growth inhibition after 72 hrs by Celltiter Glo luminescent cell viability assay; assay type: functional, cell-based
# [16] = biological target: T1, von Hippel-Lindau disease tumor suppressor/N(6)-adenosine-methyltransferase catalytic subunit METTL3; test: PROTAC activity at VHL/METTL3 in HEK293T cells assessed as induction of METTL3 degradation at 1 uM preincubated with 3MA autophagy inhibitor for 2.5 hrs followed by compound addition and measured after 6 hrs by Western blot analysis; assay type: cell-based
# MOLM-13 [17] = test: Induction of apoptosis in human MOLM-13 cells at 5 uM incubated for 48 hrs by Annexin V/PI staining based flow cytometry analysis; assay type: functional, cell-based
# [18] = biological target: T1, von Hippel-Lindau disease tumor suppressor/N(6)-adenosine-methyltransferase catalytic subunit METTL3; test: PROTAC activity at VHL/METTL3 in human MOLM-13 cells assessed as induction of METTL3 degradation at 10 uM preincubated with VH032 for 2 hrs followed by compound addition and measured after 24 hrs by Western blot analysis; assay type: cell-based
# [19] = biological target: T1, von Hippel-Lindau disease tumor suppressor/N(6)-adenosine-methyltransferase catalytic subunit METTL3; test: PROTAC activity at VHL/METTL3 expressed in human AGS cells assessed as reduction of METTL3 protein level in nucleus fraction at 1 uM incubated for 24 hrs by Western blot analysis; assay type: cell-based
# [20] = biological target: N6-adenosine-methyltransferase catalytic subunit (Homo sapiens) (UniProt Q86U44); test: Induction of thermal stabilization of METTL3 in human MOLM-13 cells at 52.4 to 54.8 degreeC incubated for 1 hrs by cellular thermal shift assay; assay type: cell-based
# [21] = biological target: T1, von Hippel-Lindau disease tumor suppressor/N(6)-adenosine-methyltransferase catalytic subunit METTL3; test: PROTAC activity at VHL/METTL3 in human MOLM-13 cells assessed as induction of METTL3 degradation at 1 uM by Western blot analysis relative to control; assay type: cell-based
# AGS = test: Anticancer activity against human AGS cells assessed as inhibition of cell growth incubated for 72 hrs by cell viability assay; assay type: functional, cell-based
# [22] = biological target: T1, von Hippel-Lindau disease tumor suppressor/N(6)-adenosine-methyltransferase catalytic subunit METTL3; test: PROTAC activity at VHL/METTL3 in human MOLM-13 cells assessed as induction of METTL3 degradation at 10 uM preincubated with UZH2 for 2 hrs followed by compound addition and measured after 24 hrs by Western blot analysis; assay type: cell-based
# [23] = biological target: T1, von Hippel-Lindau disease tumor suppressor/N(6)-adenosine-methyltransferase catalytic subunit METTL3; test: PROTAC activity at VHL/METTL3 expressed in human SNU-484 cells assessed as reduction of cytoplasmic METTL3 protein level at 1 uM incubated for 24 hrs by Western blot analysis; assay type: cell-based
# HeLa = test: Binding affinity to METTL3/GFP-fused BRD4 (unknown origin) expressed in HeLa cells presence of MZ1 by Western blot analysis; assay type: cell-based; details: Homo sapiens
# [24] = Anticancer activity against human SNU484 cells assessed as inhibition of cell growth incubated for 72 hrs by cell viability assay; assay type: functional, cell-based; details: SNU-484, 72 h
# [25] = biological target: T1, von Hippel-Lindau disease tumor suppressor/N(6)-adenosine-methyltransferase catalytic subunit METTL3; test: PROTAC activity at VHL/METTL3 in HEK293T cells assessed as induction of METTL3 degradation at 1 uM preincubated with MG132 for 2.5 hrs followed by compound addition and measured after 6 hrs by Western blot analysis; assay type: cell-based
# [26] = biological target: T1, von Hippel-Lindau disease tumor suppressor/N(6)-adenosine-methyltransferase catalytic subunit METTL3; test: PROTAC activity at VHL/METTL3 in human MOLM-13 cells assessed as induction of METTL3 degradation incubated for 24 hrs by Western blot analysis; assay type: cell-based
# [27] = biological target: T1, von Hippel-Lindau disease tumor suppressor/N(6)-adenosine-methyltransferase catalytic subunit METTL3; test: PROTAC activity at VHL/METTL3 expressed in human AGS cells assessed as reduction of cytoplasmic METTL3 protein level at 1 uM incubated for 24 hrs by Western blot analysis; assay type: cell-based
# MOLM-13 [28] = test: Antiproliferative activity against human MOLM-13 cells assessed as inhibition of cell proliferation measured after 72 hrs by Celltiter Glo luminescent cell viability assay; assay type: functional, cell-based; details: MOLM-13, 72 h
# [29] = biological target: T1, von Hippel-Lindau disease tumor suppressor/N(6)-adenosine-methyltransferase catalytic subunit METTL3; test: Binding affinity to N-Luc tagged METTL3 (unknown origin)/Halo-tagged VHL (unknown origin) expressed in HEK293T cells assessed as ternary complex formation by measuring decrease in BRET ratio at 30 uM preincubated with epoxomicin for 2 hrs followed by compound addition and measured after 4.5 hrs by NanoBRET assay; assay type: cell-based
# GES1 [30] = test: Anticancer activity against human GES1 cells assessed as inhibition of cell growth incubated for 72 hrs by cell viability assay; assay type: functional, cell-based; details: GES1, 72 h
# [31] = biological target: N6-adenosine-methyltransferase catalytic subunit (Homo sapiens) (UniProt Q86U44); test: Induction of thermal stabilization of endogenous METTL3 in human MOLM-13 cells incubated for 1 hrs by cellular thermal shift assay; assay type: cell-based
# [32] = biological target: T1, von Hippel-Lindau disease tumor suppressor/N(6)-adenosine-methyltransferase catalytic subunit METTL3; test: PROTAC activity at VHL/METTL3 expressed in human SNU-484 cells assessed as reduction of METTL3 protein level in nucleus fraction at 1 uM incubated for 24 hrs by Western blot analysis; assay type: cell-based
# HL-60 = test: Antiproliferative activity against human HL-60 cells assessed as cell growth inhibition after 72 hrs by Celltiter Glo luminescent cell viability assay; assay type: functional, cell-based
# [33] = biological target: T2, Protein cereblon/N(6)-adenosine-methyltransferase catalytic subunit METTL3 (Homo sapiens) (UniProt Q96SW2+Q86U44); test: PROTAC activity at CRBN/METTL3 in human MOLM-13 cells assessed as induction of METTL3 degradation at 10 uM by Western blot analysis relative to control; assay type: cell-based
# [34] = biological target: T2, Protein cereblon/N(6)-adenosine-methyltransferase catalytic subunit METTL3 (Homo sapiens); test: PROTAC activity at CRBN/METTL3 in human MOLM-13 cells assessed as induction of METTL3 degradation at 1 uM by Western blot analysis relative to control; assay type: cell-based
# [35] = biological target: T1, von Hippel-Lindau disease tumor suppressor/N(6)-adenosine-methyltransferase catalytic subunit METTL3; test: PROTAC activity at VHL/METTL3 (unknown origin) expressed in HeLa cells assessed as reduction in BRD4-eGFP_mCherry level incubated for 4 hrs in presence of MZ1 by flow cytometry analysis; assay type: cell-based
# [36] = biological target: T1, von Hippel-Lindau disease tumor suppressor/N(6)-adenosine-methyltransferase catalytic subunit METTL3; test: PROTAC activity at VHL/METTL3 in human MOLM-13 cells assessed as reduction in METTL3 level at 1 uM incubated for 24 hrs by Western blot analysis; assay type: cell-based
# Chain of N6-adenosine-methyltransferase catalytic subunit (Homo sapiens) (Q86U44 whole entry): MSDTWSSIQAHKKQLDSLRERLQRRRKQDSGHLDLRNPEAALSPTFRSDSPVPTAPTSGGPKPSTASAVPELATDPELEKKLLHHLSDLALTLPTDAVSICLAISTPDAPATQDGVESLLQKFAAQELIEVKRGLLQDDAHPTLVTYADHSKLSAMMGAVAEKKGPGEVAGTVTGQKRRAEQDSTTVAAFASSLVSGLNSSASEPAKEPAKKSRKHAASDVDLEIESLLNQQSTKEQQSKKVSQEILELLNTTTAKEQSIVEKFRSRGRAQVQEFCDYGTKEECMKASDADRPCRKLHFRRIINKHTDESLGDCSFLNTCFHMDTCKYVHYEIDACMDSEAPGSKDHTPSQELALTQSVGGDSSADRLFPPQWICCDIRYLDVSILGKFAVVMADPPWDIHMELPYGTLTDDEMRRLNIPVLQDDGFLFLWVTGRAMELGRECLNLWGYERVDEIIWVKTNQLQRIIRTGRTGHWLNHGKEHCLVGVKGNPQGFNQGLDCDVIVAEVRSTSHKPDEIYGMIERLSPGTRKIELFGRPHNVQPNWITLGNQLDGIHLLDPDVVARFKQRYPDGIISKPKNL
# T2 sequence (Q86U44 whole entry, looked up): as the sequence (Q86U44 whole entry) above
# T2 sequence (Q96SW2 whole entry, looked up): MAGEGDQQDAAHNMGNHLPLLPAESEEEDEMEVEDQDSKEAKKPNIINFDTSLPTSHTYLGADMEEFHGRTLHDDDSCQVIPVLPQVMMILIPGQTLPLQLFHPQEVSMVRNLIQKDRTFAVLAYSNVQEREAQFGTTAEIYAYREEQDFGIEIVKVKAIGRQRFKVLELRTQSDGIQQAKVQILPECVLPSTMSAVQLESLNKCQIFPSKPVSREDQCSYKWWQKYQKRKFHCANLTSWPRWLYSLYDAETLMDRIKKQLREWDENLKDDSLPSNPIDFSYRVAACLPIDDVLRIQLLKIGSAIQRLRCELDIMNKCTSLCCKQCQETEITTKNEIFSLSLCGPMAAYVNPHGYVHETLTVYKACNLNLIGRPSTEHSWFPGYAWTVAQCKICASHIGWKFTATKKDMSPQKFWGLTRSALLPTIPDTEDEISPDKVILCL
# Chain of METTL3/METTL14 (Q86U44 whole entry): as the sequence (Q86U44 whole entry) above
# Chain of METTL3/METTL14 (Q9HCE5 whole entry, further chain): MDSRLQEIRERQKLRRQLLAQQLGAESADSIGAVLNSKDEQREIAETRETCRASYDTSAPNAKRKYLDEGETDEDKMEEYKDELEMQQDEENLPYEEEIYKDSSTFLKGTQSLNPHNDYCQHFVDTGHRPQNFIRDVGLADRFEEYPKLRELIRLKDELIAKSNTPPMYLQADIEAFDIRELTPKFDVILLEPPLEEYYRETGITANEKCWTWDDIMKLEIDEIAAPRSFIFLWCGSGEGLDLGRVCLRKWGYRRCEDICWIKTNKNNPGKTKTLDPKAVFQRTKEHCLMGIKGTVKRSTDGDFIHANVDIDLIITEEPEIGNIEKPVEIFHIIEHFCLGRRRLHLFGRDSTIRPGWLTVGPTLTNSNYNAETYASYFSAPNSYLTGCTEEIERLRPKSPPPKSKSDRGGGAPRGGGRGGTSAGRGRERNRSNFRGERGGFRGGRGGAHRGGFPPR
smiles,measurement,setting,value
Cc1ncsc1-c1ccc(CNC(=O)[C@@H]2C[C@@H](O)CN2C(=O)[C@@H](NC(=O)CCCCCCCNc2cc(N3CCC4(CC3)CN(c3cc(F)c(CN5CCC(C)(C)CC5)cc3F)CC(=O)N4)ncn2)C(C)(C)C)cc1,Activity,Gastric cancer organoid [1],Active
same,Activity,[2],Dose-Dependent Effect
same,Activity,[3],> 50%
same,Activity,[4],Active
same,Activity,GES1 [5],Toxic
same,Activity,[6],50%
same,Activity,MOLM-13 [7],Dose-Dependent Effect
same,Activity,[8],Active
same,Activity,[9],Active
same,Activity,[10],inactive
same,pIC50,METTL3/METTL14,6.47
same,Activity,[11],90%
same,Activity,[12],Tde
same,Activity,[13],inactive
same,Activity,Gastric cancer organoid [14],Active
same,Activity,[15],inactive
same,Activity,MOLM-14,Active
same,Activity,[16],Active
same,Activity,MOLM-13 [17],Active
same,Activity,[18],Active
same,Activity,[19],Active
same,Activity,[20],Active
same,Activity,[21],84%
same,pIC50,AGS,5.83
same,Activity,[22],inactive
same,Activity,[23],Active
same,Activity,HeLa,Active
same,pIC50,[24],5.52
same,Activity,[25],inactive
same,Activity,[26],Dose-Dependent Effect
same,DC50,[26],0.22 µM
same,Activity,[27],Active
same,pIC50,MOLM-13 [28],5.98
same,Activity,[29],inactive
same,pIC50,GES1 [30],< 4.30
same,Activity,[31],Dose-Dependent Effect
same,Activity,[32],Active
same,Activity,HL-60,Active
CC1(C)CCN(Cc2cc(F)c(N3CC(=O)NC4(CCN(c5cc(NCCCCCC(=O)N6CCN(c7ccc8c(c7)C(=O)N(C7CCC(=O)NC7=O)C8=O)CC6)ncn5)CC4)C3)cc2F)CC1 (stereo unspecified),Activity,[33],35%
same,Activity,[34],32%
Cc1ncsc1-c1ccc(CNC(=O)[C@@H]2C[C@H](O)CN2C(=O)[C@@H](NC(=O)CCCCCCCNc2cc(N3CCC4(CC3)CN(c3cc(F)c(CN5CCC(C)(C)CC5)cc3F)CC(=O)N4)ncn2)C(C)(C)C)cc1,Activity,[35],Active
same,Activity,[20],Active
same,Activity,HeLa,Active
same,Activity,[36],inactive
Cc1ncsc1-c1ccc(CNC(=O)[C@@H]2C[C@@H](O)CN2C(=O)[C@@H](NC(=O)CCCCCCCCCCNc2cc(N3CCC4(CC3)CN(c3cc(F)c(CN5CCC(C)(C)CC5)cc3F)CC(=O)N4)ncn2)C(C)(C)C)cc1,Activity,[6],55%
same,Activity,[21],34%
